ChEMBL document CHEMBL1147610, “Orally active PDE4 inhibitors with therapeutic potential” (Bioorg Med Chem Lett, 2004)

Experiments:
Rattus norvegicus [1] = assay: Inhibition of LPS-induced TNF-alpha production in rats 0.5 hr after oral dose; assay type: functional; conditions: for ED50: read-out: ID50 (the source's name)
Phosphodiesterase 4 [2] = target: T1, Phosphodiesterase 4 (Homo sapiens, UniProt P27815+Q08499+Q07343+Q08493); assay: Inhibition of PDE4 from U937 monocytic cells; assay type: cell-based; conditions: u-937
Cavia porcellus = assay: Inhibition of SRS-A-mediated bronchoconstriction and airway microvascular leakage in sensitized guinea pigs […] 1 hr prio to challenge; assay type: functional; conditions: Lung, route oral, read-out: ID50 (the source's name)
Homo sapiens = species on record: Homo sapiens; assay: Inhibition of LPS induced TNF-alpha production in human whole blood; assay type: functional; conditions: read-out: ID50 (the source's name)
Rattus norvegicus [3] = species on record: Rattus norvegicus; assay: (§1) Inhibition of gastric emptying in rats; assay type: functional, Stomach
Rattus norvegicus [4] = species on record: Rattus norvegicus; assay: as §1; assay type: functional; conditions: Stomach, read-out: ID50 (the source's name)
Phosphodiesterase 4 [5] = target: T1, Phosphodiesterase 4; assay: Inhibition of PDE4 (Phosphodiesterase 4) from U937 cells; assay type: cell-based; conditions: U-937, concentration not given here

Row | SMILES | IC50 (Phosphodiesterase 4 [2]) | ED50 (Rattus norvegicus [1]) | Inhibition (Rattus norvegicus [1]) | other results
1 | COc1ccc([C@]2(C#N)C[C@H]3C[C@H](C(=O)O)C[C@H]3C2)cc1OC1CCCC1 | 150 nM | 3.8 mg/kg | – | –
2 | COc1ccc([C@]2(C#N)C[C@H]3C[C@@H](C(=O)O)C[C@H]3C2)cc1OC1CCCC1 | 9 nM | 0.4 mg/kg | – | ED50 (Cavia porcellus): 9.6 mg/kg; IC50 (Homo sapiens): 21000 nM; Inhibition (Rattus norvegicus [3]): 73%
3 | COc1ccc([C@@]2(C#N)C[C@H]3C[C@H](C(=O)O)C[C@H]3C2)cc1OC1CCCC1 | > 300 nM | – | – | –
4 | COc1ccc([C@]2(C#N)CC[C@@H](C(=O)O)CC2)cc1OC1CCCC1 [CILOMILAST] | – | 1.7 mg/kg | – | ED50 (Cavia porcellus): 4.5 mg/kg; IC50 (Homo sapiens): 18000 nM; ED50 (Rattus norvegicus [4]): 5.7 mg/kg
5 | COc1ccc([C@]2(C#N)C[C@H]3C[C@@H](C(=O)O)C[C@H]3C2)cc1OCC1CC1 | 100 nM | – | – | –
6 | COc1ccc([C@]2(C#N)C[C@H]3C[C@@H](C(=O)O)C[C@H]3C2)cc1OC1Cc2ccccc2C1 | 1.3 nM | 1.7 mg/kg | – | –
7 | COc1ccc([C@@]2(C#N)C[C@H]3C[C@@H](C(=O)O)C[C@H]3C2)cc1OC1CCCC1 | > 300 nM | – | – | –
8 | CCOc1cc([C@]2(C#N)C[C@H]3C[C@@H](C(=O)NO)C[C@H]3C2)ccc1OC | – | 1.8 mg/kg | – | inhibition (Phosphodiesterase 4 [5]): 56%; ED50 (Cavia porcellus): 5 mg/kg; IC50 (Homo sapiens): 800 nM; ED50 (Rattus norvegicus [4]): 12 mg/kg
9 | COc1ccc([C@]2(C#N)C[C@H]3C[C@@H](C(=O)NO)C[C@H]3C2)cc1OC1Cc2ccccc2C1 | 0.85 nM | – | 17% | –

Second part, led by results:

Row | IC50 (Phosphodiesterase 4 [2]) | SMILES | ED50 (Rattus norvegicus [1]) | Inhibition (Rattus norvegicus [1]) | other results
10 | 62 nM | COc1ccc([C@]2(C#N)C[C@H]3C[C@@H](C(=O)O)C[C@H]3C2)cc1OC(C)C | – | 57% | –
11 | 9.7 nM | COc1ccc([C@]2(C#N)C[C@H]3C[C@@H](C(=O)NO)C[C@H]3C2)cc1OC1CCCC1 | – | 52% | –
12 | 160 nM | COc1ccc([C@]2(C#N)C[C@H]3C[C@@H](C(=O)O)C[C@H]3C2)cc1OC | – | – | –
13 | 29 nM | COc1ccc([C@]2(C#N)C[C@H]3C[C@@H](C(=O)NO)C[C@H]3C2)cc1OCC1CC1 | 3 mg/kg | – | –
14 | 62 nM | COc1ccc([C@]2(C#N)C[C@H]3C[C@@H](C(=O)NO)C[C@H]3C2)cc1OC | – | 55% | –
15 | 26 nM | CCOc1cc([C@]2(C#N)C[C@H]3C[C@@H](C(=O)O)C[C@H]3C2)ccc1OC | 2.9 mg/kg | – | IC50 (Homo sapiens): 5800 nM; ED50 (Rattus norvegicus [4]): 17 mg/kg
16 | 12 nM | COc1ccc([C@]2(C#N)C[C@H]3C[C@@H](C(=O)NO)C[C@H]3C2)cc1OC(C)C | – | 47% | –
